Laboratory results published in US6846182B1, “Dental bleaching composition and method” (priority 1996, dated 2005).

Experimental: Fluoride has been used in dentistry to reduce sensitivity for many years. Often, when the root surface of teeth is exposed to the oral cavity due to gingival recession, these teeth become sensitive to hot, cold and sometimes sweets. […] This post bleaching pain usually has an onset of about 2 hours post-bleaching and lasts for 2 or more days.

Q: With neutral sodium fluoride as the substance, how does the post-bleaching pain level (applied 5 minutes post bleaching) read?
A: The post-bleaching pain level was “often diminished”.

Q: And the post-bleaching sensitivity (applied at least 10 minutes after bleaching is completed)?
A: The post-bleaching sensitivity was “almost completely eliminated”.
